Consider 27 molecules from patent publication US20110009381A1, “SOLUBILIZED THIAZOLOPYRIDINES” (Sirtis Pharmaceuticals, Inc., priority 2007, published 2011).

The assay concerns the target T1, SIRT1 (Homo sapiens, UniProt Q96EB6).
T1 sequence (Q96EB6 1-747): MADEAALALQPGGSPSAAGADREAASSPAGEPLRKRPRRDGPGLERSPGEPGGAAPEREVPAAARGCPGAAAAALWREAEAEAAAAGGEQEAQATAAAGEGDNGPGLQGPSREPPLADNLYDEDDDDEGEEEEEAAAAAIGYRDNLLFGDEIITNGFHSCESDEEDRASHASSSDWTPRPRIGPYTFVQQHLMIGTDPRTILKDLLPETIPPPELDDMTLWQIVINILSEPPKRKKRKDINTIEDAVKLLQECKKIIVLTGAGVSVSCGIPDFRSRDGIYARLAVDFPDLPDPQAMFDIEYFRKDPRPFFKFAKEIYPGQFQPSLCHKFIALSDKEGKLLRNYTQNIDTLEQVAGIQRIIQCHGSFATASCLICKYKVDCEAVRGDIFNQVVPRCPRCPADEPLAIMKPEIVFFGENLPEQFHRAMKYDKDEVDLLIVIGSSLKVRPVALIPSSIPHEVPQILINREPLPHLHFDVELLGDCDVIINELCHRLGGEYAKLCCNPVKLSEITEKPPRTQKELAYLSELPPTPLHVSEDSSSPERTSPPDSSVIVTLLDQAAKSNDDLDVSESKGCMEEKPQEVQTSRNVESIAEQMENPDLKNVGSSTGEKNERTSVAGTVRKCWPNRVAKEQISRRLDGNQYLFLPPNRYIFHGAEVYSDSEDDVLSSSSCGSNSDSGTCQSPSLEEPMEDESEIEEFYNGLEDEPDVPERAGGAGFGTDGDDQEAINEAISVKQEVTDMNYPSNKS
The assay can be described thus: Mass spectrometry based assay to identify modulators of SIRT1 activity (deacetylation of p53-based acetylated peptide substrate). The assay is classed as biochemical. Particulars: 10 nM SIRT1, 0.5 μM peptide substrate, 120 μM βNAD+, 25 minutes at 25° C.; for EC1.5: SIRT1 activation. The text has this:
A mass spectrometry based assay was used to identify modulators of SIRT1 activity. The mass spectrometry based assay utilizes a peptide having 20 amino acid residues as follows: Ac-EE-K(biotin)-GQSTSSHSK(Ac)NleSTEG-K(5TMR)-EE-NH2 (SEQ ID NO: 1) wherein K(Ac) is an acetylated lysine residue and Nle is a norleucine. The peptide is labeled with the fluorophore 5TMR (excitation 540 nm/emission 580 nm) at the C-terminus. The sequence of the peptide substrate is based on p53 with several modifications. In addition, the methionine residue naturally present in the sequence was replaced with the norleucine because the methionine may be susceptible to oxidation during synthesis and purification.
The mass spectrometry assay is conducted as follows: 0.5 μM peptide substrate and 120 μM βNAD^+ is incubated with 10 nM SIRT1 for 25 minutes at 25° C. in a reaction buffer (50 mM Tris-acetate pH 8, 137 mM NaCl, 2.7 mM KCl, 1 mM MgCl2, 5 mM DTT, 0.05% BSA). Test compounds may be added to the reaction as described above. The SirT1 gene is cloned into a T7-promoter containing vector and transformed into BL21(DE3). After the 25 minute incubation with SIRT1, 10 μL of 10% formic acid is added to stop the reaction. Reactions are sealed and frozen for later mass spec analysis. Determination of the mass of the substrate peptide allows for precise determination of the degree of acetylation (i.e. starting material) as compared to deacetylated peptide (product).
A control for inhibition of sirtuin activity is conducted by adding 1 μL of 500 mM nicotinamide as a negative control at the start of the reaction (e.g., permits determination of maximum sirtuin inhibition). A control for activation of sirtuin activity is conducted using 10 nM of sirtuin protein, with 1 μL of DMSO in place of compound, to determine the amount of deacetylation of the substrate at a given timepoint within the linear range of the assay. This timepoint is the same as that used for test compounds and, within the linear range, the endpoint represents a change in velocity.
For the above assay, SIRT1 protein was expressed and purified as follows. The SirT1 gene was cloned into a T7-promoter containing vector and transformed into BL21(DE3). The protein was expressed by induction with 1 mM IPTG as an N-terminal His-tag fusion protein at 18° C. overnight and harvested at 30,000×g. Cells were lysed with lysozyme in lysis buffer (50 mM Tris-HCl, 2 mM Tris[2-carboxyethyl]phosphine (TCEP), 10 μM ZnCl2, 200 mM NaCl) and further treated with sonication for 10 min for complete lysis. The protein was purified over a Ni-NTA column (Amersham) and fractions containing pure protein were pooled, concentrated and run over a sizing column (Sephadex S200 26/60 global). The peak containing soluble protein was collected and run on an Ion-exchange column (MonoQ). Gradient elution (200 mM-500 mM NaCl) yielded pure protein. This protein was concentrated and dialyzed against dialysis buffer (20 mM Tris-HCl, 2 mM TCEP) overnight. The protein was aliquoted and frozen at −80° C. until further use.
Sirtuin modulating compounds that activated SIRT1 were identified using the assay described above and are shown below in Table 1. The EC1-5 values for the activating compounds are represented by A′ (EC1.5<250 nM), A (EC1.5≧250 nM and ≦1 uM), B (EC1.5>1 and ≦10 uM), or C (EC1.5>10 uM). The percent maximum fold activation is represented by A (Fold activation≧300%), B (Fold Activation≧150% and <300%), or C (Fold Activation<150%).

Each structure is given as a SMILES string.

Turning to `Cc1cccc(-c2nc(NCCN3CCOCC3)cc(C(=O)Nc3ccccc3-c3nc4cccnc4s3)n2)c1` [Compound 133], the “FOLD ACT. (percent maximum fold activation)” value is “A (Fold activation≧300%)” and the EC1.5 result is “A′ (EC1.5<250 nM)”.
With `O=C(Nc1ccccc1-c1nc2cccnc2s1)c1cc(NCc2ccccn2)nc(-c2ccccc2)n1` [Compound 55], the “FOLD ACT. (percent maximum fold activation)” value was “B (Fold Activation≧150% and <300%)”; the EC1.5 entry is “A (EC1.5≧250 nM and ≦1 uM)”.
For `COCCN1CCN(c2cc(C(=O)Nc3ccccc3-c3nc4cccnc4s3)nc(OC)n2)CC1` [Compound 5], the “FOLD ACT. (percent maximum fold activation)” value is “A (Fold activation≧300%)”; the EC1.5 result is “A (EC1.5≧250 nM and ≦1 uM)”.
As to `CC(=O)N1CCC(Nc2cc(C(=O)Nc3ccccc3-c3nc4cccnc4s3)nc(-c3ccccc3)n2)CC1` [Compound 116], the “FOLD ACT. (percent maximum fold activation)” value was “A (Fold activation≧300%)” and the EC1.5 entry is “A′ (EC1.5<250 nM)”.
For `CC(C)C(=O)N1CCC(Nc2cc(C(=O)Nc3ccccc3-c3nc4cccnc4s3)nc(-c3ccccc3)n2)CC1` [Compound 117] the same measures were “A (Fold activation≧300%)” and “A′ (EC1.5<250 nM)”.
For `O=C(Nc1ccccc1-c1nc2cccnc2s1)c1cc(N2CCNCC2)nc(-c2ccccc2)n1` [Compound 1] the same measures were “A (Fold activation≧300%)” and “A′ (EC1.5<250 nM)”.
On to `O=C(Nc1ccccc1-c1nc2cccnc2s1)c1cc(NC2CCCC2)nc(-c2ccccc2)n1` [Compound 20], for which the “FOLD ACT. (percent maximum fold activation)” value is given as “C (Fold Activation<150%)” and the EC1.5 result is “C (EC1.5>10 uM)”.
In the case of `COCCNc1cc(C(=O)Nc2ccccc2-c2nc3ccncc3s2)nc(-c2ccccc2)n1` [Compound 27], the “FOLD ACT. (percent maximum fold activation)” value is on record as “A (Fold activation≧300%)”; the EC1.5 entry was “A (EC1.5≧250 nM and ≦1 uM)”.
Consider `O=C(Nc1ccccc1-c1nc2cccnc2s1)c1cc(NCc2ccncc2)nc(-c2ccccc2)n1` [Compound 59], for which the “FOLD ACT. (percent maximum fold activation)” value is listed as “A (Fold activation≧300%)”; the EC1.5 entry was “A (EC1.5≧250 nM and ≦1 uM)”.
On to `CN(C)CCCNc1cc(C(=O)Nc2ccccc2-c2nc3cccnc3s2)nc(-c2ccccc2)n1` [Compound 88], for which the “FOLD ACT. (percent maximum fold activation)” value is “A (Fold activation≧300%)”; the EC1.5 result was “A (EC1.5≧250 nM and ≦1 uM)”.
In the case of `Cc1cccc(-c2nc(NCCN3CCCCC3)cc(C(=O)Nc3ccccc3-c3nc4cccnc4s3)n2)c1` [Compound 132], the “FOLD ACT. (percent maximum fold activation)” value was “A (Fold activation≧300%)” and the EC1.5 entry is reported as “A′ (EC1.5<250 nM)”.
On to `O=C(Nc1ccccc1-c1nc2cccnc2s1)c1cc(NCC2CCCCN2)nc(-c2ccccc2)n1` (stereo not drawn) [Compound 89], for which the “FOLD ACT. (percent maximum fold activation)” value is reported as “A (Fold activation≧300%)” and the EC1.5 entry was “A′ (EC1.5<250 nM)”.
On to `Cc1cccc(-c2nc(OC[C@@H](O)CO)cc(C(=O)Nc3ccccc3-c3nc4cccnc4s3)n2)c1` [Compound 142], for which the “FOLD ACT. (percent maximum fold activation)” value is “A (Fold activation≧300%)”; the EC1.5 entry was “A (EC1.5≧250 nM and ≦1 uM)”.
Regarding `CCN(CCN(C)C)c1cc(C(=O)Nc2ccccc2-c2nc3cccnc3s2)nc(-c2ccccc2)n1` [Compound 146], the “FOLD ACT. (percent maximum fold activation)” value is recorded as “A (Fold activation≧300%)” and the EC1.5 result is given as “A′ (EC1.5<250 nM)”.
For the molecule `COCCN(C)CCOc1cc(C(=O)Nc2ccccc2-c2nc3cccnc3s2)nc(-c2ccccc2)c1` [Compound 50], the “FOLD ACT. (percent maximum fold activation)” value was “A (Fold activation≧300%)” and the EC1.5 entry is “A′ (EC1.5<250 nM)”.
For `COCCN(CCOC)c1cc(C(=O)Nc2ccccc2-c2nc3cccnc3s2)nc(-c2ccccc2)c1` [Compound 130] the same measures were “A (Fold activation≧300%)” and “A′ (EC1.5<250 nM)”.
For `O=C(Nc1ccccc1-c1nc2cccnc2s1)c1cc(NC2CCNC2)nc(-c2ccccc2)n1` (stereo not drawn) [Compound 104] the same measures were “A (Fold activation≧300%)” and “A′ (EC1.5<250 nM)”.
Consider `O=C(Nc1ccccc1-c1nc2cccnc2s1)c1cc(NC(CO)C(=O)O)nc(-c2ccccc2)n1` (stereo not drawn) [Compound 92], for which the “FOLD ACT. (percent maximum fold activation)” value is on record as “A (Fold activation≧300%)”; the EC1.5 result is “B (EC1.5>1 and ≦10 uM)”.
With `Cc1cccc(-c2nc(C(=O)Nc3ccccc3-c3nc4cccnc4s3)cc(N3CCN(C(C)C)CC3)n2)c1` [Compound 138], the “FOLD ACT. (percent maximum fold activation)” value is on record as “A (Fold activation≧300%)” and the EC1.5 result is on record as “A′ (EC1.5<250 nM)”.
Take `O=C1CN(c2cc(C(=O)Nc3ccccc3-c3nc4cccnc4s3)nc(-c3ccccc3)n2)CCN1` [Compound 149]: the “FOLD ACT. (percent maximum fold activation)” value is “B (Fold Activation≧150% and <300%)”; the EC1.5 entry is “A (EC1.5≧250 nM and ≦1 uM)”.
In the case of `O=C(Nc1ccccc1-c1nc2cccnc2s1)c1cc(OC2CNC2)cc(-c2ccccc2)n1` [Compound 6], the “FOLD ACT. (percent maximum fold activation)” value is reported as “A (Fold activation≧300%)”; the EC1.5 entry is “A (EC1.5≧250 nM and ≦1 uM)”.
With `Cl.O=C(Nc1ccccc1-c1nc2cccnc2s1)c1cc(NCCN2CCCCC2)nc(-c2ccccc2)n1` [Compound 67], the “FOLD ACT. (percent maximum fold activation)” value is given as “A (Fold activation≧300%)” and the EC1.5 entry is “A′ (EC1.5<250 nM)”.
For `COCCN1CCN(c2cc(C(=O)Nc3ccccc3-c3nc4cccnc4s3)nc(Cl)n2)CC1` [Compound 4], the “FOLD ACT. (percent maximum fold activation)” value was “A (Fold activation≧300%)”; the EC1.5 entry was “A (EC1.5≧250 nM and ≦1 uM)”.
For the molecule `CC(C)N1CCN(c2cc(C(=O)Nc3ccccc3-c3nc4ccncc4s3)nc(-c3ccccc3)n2)CC1` [Compound 24], the “FOLD ACT. (percent maximum fold activation)” value was “A (Fold activation≧300%)” and the EC1.5 entry is listed as “A′ (EC1.5<250 nM)”.
For `O=C(Nc1ccccc1-c1nc2ccncc2s1)c1cc(NCc2ccncc2)nc(-c2ccccc2)n1` [Compound 32], the “FOLD ACT. (percent maximum fold activation)” value is “A (Fold activation≧300%)”; the EC1.5 result was “A (EC1.5≧250 nM and ≦1 uM)”.
On to `O=C(Nc1ccccc1-c1nc2cccnc2s1)c1cc(OCCN2CCNCC2)cc(-c2ccccc2)n1` [Compound 14], for which the “FOLD ACT. (percent maximum fold activation)” value is given as “A (Fold activation≧300%)” and the EC1.5 entry is “A′ (EC1.5<250 nM)”.
For `O=C(Nc1ccccc1-c1nc2cccnc2s1)c1cc(OCCO)nc(-c2ccccc2)n1` [Compound 80] the same measures were “C (Fold Activation<150%)” and “C (EC1.5>10 uM)”.
